According to patent US9795597B2, “Cyclopropylamines as LSD1 inhibitors” (GlaxoSmithKline Intellectual Property (No.2) Limited, priority 2011, dated 2017):

Tests used:
MAO-B = target: T1, MAO-B (Homo sapiens, UniProt P27338); assay: Biochemical assay for MAO-B activity (FLINT, benzylamine/amplex red); settings: average of two or more tests; 30 min preincubation of enzyme and compound; read-out: MAOB PIC50 MEAN (converted)
T1 construct: purchased Gentest-BD Biosciences 456284
T1 sequence (P27338 1-520): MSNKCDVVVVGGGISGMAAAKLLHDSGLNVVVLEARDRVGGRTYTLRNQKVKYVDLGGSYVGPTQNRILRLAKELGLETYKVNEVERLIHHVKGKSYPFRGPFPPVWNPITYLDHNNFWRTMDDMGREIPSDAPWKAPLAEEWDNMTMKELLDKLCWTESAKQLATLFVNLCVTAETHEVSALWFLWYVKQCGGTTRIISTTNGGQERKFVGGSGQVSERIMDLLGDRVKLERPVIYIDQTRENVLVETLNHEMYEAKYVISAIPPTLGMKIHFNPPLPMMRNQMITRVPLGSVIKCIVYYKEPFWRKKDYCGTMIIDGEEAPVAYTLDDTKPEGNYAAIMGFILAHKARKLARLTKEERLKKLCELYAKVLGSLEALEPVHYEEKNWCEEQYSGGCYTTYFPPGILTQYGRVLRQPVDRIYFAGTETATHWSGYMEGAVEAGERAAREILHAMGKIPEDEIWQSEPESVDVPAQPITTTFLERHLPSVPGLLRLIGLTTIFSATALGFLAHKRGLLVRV
Method: Biochemical Assay for MAO-B Activity
The MAO-B FLINT assay is performed in a buffer containing 50 mM potassium phospate, pH 7.4, in milliQ ultrapure water. […] The enzyme and test compound are allowed to incubate together for 30 minutes at room temperature. Five microliters of the substrate mix are then added to each well of the plate to initiate the reaction. The plates are covered, protected from light and allowed to incubate for one hour at room temperature. […] Percent inhibition is calculated based on no compound and no enzyme controls, and inhibition curves are then plotted to determine PIC50 values.

LSD1 = target: T2, LSD1 (Homo sapiens, UniProt O60341); assay: Biochemical assay for LSD-1 activity (luminescence, H3K4 dimethylated peptide substrate); settings: average of two or more tests; 30 min preincubation of enzyme and compound; read-out: LSD1 PIC50 MEAN (converted)
T2 construct: made in house
Method: Biochemical Assay for LSD-1 Activity
The LSD-1 luminescence assay is performed in a buffer containing 25 mM Tris, pH 7.5, 50 mM potassium chloride, 0.02% heat-denatured BSA, 2 mM CHAPS and milliQ ultrapure water. […] The enzyme and test compound are allowed to incubate together for 30 minutes at room temperature. Two microliters of the substrate mix are then added to each well of the plate to initiate the reaction. The plates are covered, protected from light and allowed to incubate for two hours at room temperature. Then, 4 uL of HyPerBlu peroxide detection luminescence reagent (Lumigen/Beckman Coulter, cat# HPB-00005) is added to each well to quench the demethylase reaction and generate the peroxide-dependent luminescence signal. The plates are then incubated for 15-30 minutes in the dark at room temperature prior to being read for Luminescence using a Perkin Elmer Viewlux plate reader. Percent inhibition is calculated based on no compound and no enzyme controls, and inhibition curves are then plotted to determine PIC50 values.

Row | Compound | IC50 (MAO-B) [nM] | IC50 (LSD1) [nM]
1 | c1ccc([C@@H]2C[C@H]2NCC2CCCCC2)cc1 (relative stereo) [Example 7, trans-N-(Cyclohexylmethyl)-2-phenylcyclopropanamine] | 398 | 158
2 | c1ccc(CN2CCC(CN[C@@H]3C[C@H]3c3ccccc3)CC2)cc1 (relative stereo) [Example 8, [trans-2-Phenylcyclopropyl]{[1-(phenylmethyl)-4-piperidinyl]methyl}amine] | 25100 | 6.31
3 | CC(C)(C)OC(=O)N[C@H]1CC[C@H](CN[C@@H]2C[C@H]2c2ccccc2)CC1 (relative stereo) [Example 9, 1,1-Dimethylethyl[trans-4-({[trans-2-phenylcyclopropyl]amino}methyl)cyclohexyl]carbamate] | 398 | 158
4 | N[C@H]1CC[C@H](CN[C@@H]2C[C@H]2c2ccccc2)CC1 (relative stereo) [Example 10, trans-4-({[trans-2-Phenylcyclopropyl]amino}methyl)cyclohexanamine] | 7940 | 7.94
5 | OCCN1CCC(CN[C@@H]2C[C@H]2c2ccccc2)CC1 (relative stereo) [Example 11, 2-(4-(((trans-2-Phenylcyclopropyl)amino)methyl)piperidin-1-yl)ethanol] | 31600 | 12.6
6 | O=C(Nc1ccccc1)N1CCC(CN[C@@H]2C[C@H]2c2ccccc2)CC1 (relative stereo) [Example 12, N-Phenyl-4-(((trans-2-phenylcyclopropyl)amino)methyl)piperidine-1-carboxamide] | 2000 | 79.4
7 | O=S(=O)(c1ccccc1)N1CCC(CN[C@@H]2C[C@H]2c2ccccc2)CC1 (relative stereo) [Example 13, trans-2-Phenyl-N-((1-(phenylsulfonyl)piperidin-4-yl)methyl)cyclopropanamine] | 5010 | 50.1
8 | O=C(c1ccccc1)N1CCC(CN[C@@H]2C[C@H]2c2ccccc2)CC1 (relative stereo) [Example 14, Phenyl(4-(((trans-2-phenylcyclopropyl)amino)methyl)piperidin-1-yl)methanone] | 39800 | 126
9 | CC(=O)N1CCC(CN[C@@H]2C[C@H]2c2ccccc2)CC1 (relative stereo) [Example 15, 1-(4-(((trans-2-Phenylcyclopropyl)amino)methyl)piperidin-1-yl)ethanone] | 15800 | 316
10 | CC(=O)N(CC1CCNCC1)[C@@H]1C[C@H]1c1ccccc1 (relative stereo) [Example 17, N-(trans-2-Phenylcyclopropyl)-N-(piperidin-4-ylmethyl)acetamide] | 63100 | 20000
11 | O=C(OCc1ccccc1)N1CCC(CN[C@@H]2C[C@H]2c2ccccc2)CC1 (relative stereo) [Example 18, Benzyl 4-(((trans-2-phenylcyclopropyl)amino)methyl)piperidine-1-carboxylate] | 631 | 31.6
12 | CN1CCC(CN[C@@H]2C[C@H]2c2ccccc2)CC1 (relative stereo) [Example 20, [(1-Methyl-4-piperidinyl)methyl][trans-2-phenylcyclopropyl]amine] | 25100 | 6.31
13 | O=C(O)c1ccc(CN2CCC(CN[C@H]3C[C@@H]3c3ccccc3)CC2)cc1 (relative stereo) [Example 26, 4-((4-(((trans-2-phenylcyclopropyl)amino)methyl)piperidin-1-yl)methyl)benzoic acid] | 50100 | 200
14 | O=C(O)CN1CCC(CN[C@H]2C[C@@H]2c2ccccc2)CC1 (relative stereo) [Example 27, 2-(4-(((trans-2-phenylcyclopropyl)amino)methyl)piperidin-1-yl)acetic acid] | 63100 | 200
15 | c1ccc([C@@H]2C[C@H]2NCC2CCN(Cc3ccncc3)CC2)cc1 (relative stereo) [Example 33, trans-2-Phenyl-N-((1-(pyridin-4-ylmethyl)piperidin-4-yl)methyl)cyclopropanamine] | 50100 | 15.8
16 | Fc1ccccc1C[N+]1(Cc2ccccc2F)CCC(CN[C@@H]2C[C@H]2c2ccccc2)CC1 (relative stereo) [Example 35, 1,1-Bis(2-fluorobenzyl)-4-(((trans-2-phenylcyclopropyl)amino)methyl)piperidin-1-ium chloride] | 31600 | 15.8
17 | CS(=O)(=O)c1ccc(CN2CCC(CN[C@@H]3C[C@H]3c3ccccc3)CC2)cc1 (relative stereo) [Example 43, trans-N-((1-(4-(Methylsulfonyl)benzyl)piperidin-4-yl)methyl)-2-phenylcyclopropanamine] | 501 | 6.31
18 | Cc1cc(CN2CCC(CN[C@@H]3C[C@H]3c3ccccc3)CC2)no1 (relative stereo) [Example 47, trans-N-((1-((5-Methylisoxazol-3-yl)methyl)piperidin-4-yl)methyl)-2-phenylcyclopropanamine] | 15800 | 100
19 | OB1OCc2c(CN3CCC(CN[C@@H]4C[C@H]4c4ccccc4)CC3)cccc21 (relative stereo) [Example 55, 4-((4-(((trans-2-Phenylcyclopropyl)amino)methyl)piperidin-1-yl)methyl)benzo[c][1,2]oxaborol-1(3H)-ol] | 7940 | 25.1
20 | OB(O)c1ccc(CN2CCC(CN[C@@H]3C[C@H]3c3ccccc3)CC2)cc1 (relative stereo) [Example 57, (4-((4-(((trans-2-phenylcyclopropyl)amino)methyl)piperidin-1-yl)methyl)phenyl)boronic acid] | 31600 | 7.94
21 | CN(CCC1CCNCC1)[C@@H]1C[C@H]1c1ccccc1 (relative stereo) [Example 77, trans-N-Methyl-2-phenyl-N-(2-(piperidin-4-yl)ethyl)cyclopropanamine] | 31600 | 200
22 | O=S(=O)(Nc1ccc([C@@H]2C[C@H]2NCC2CCNCC2)cc1)c1ccccc1 (relative stereo) [Example 91, N-(4-((trans)-2-((piperidin-4-ylmethyl)amino)cyclopropyl)phenyl)benzenesulfonamide] | 15800 | 6.31
23 | Cc1noc(C)c1S(=O)(=O)N1CCC(CN[C@@H]2C[C@H]2c2ccccc2)CC1 (relative stereo) [Example 100, trans-N-((1-((3,5-dimethylisoxazol-4-yl)sulfonyl)piperidin-4-yl)methyl)-2-phenylcyclopropanamine] | 15800 | 79.4
24 | c1ccc(C2C[C@@H]2NCC2CCCNC2)cc1 (stereo in doubt) [Example 16, [trans-2-Phenylcyclopropyl](3-piperidinylmethyl)amine] | 39800 | 7.94
25 | CC(C)(C)OC(=O)N1CCCC(CN[C@H]2CC2c2ccccc2)CC1 (stereo in doubt) [Example 21, 1,1-Dimethylethyl 4-({[trans-2-phenylcyclopropyl]amino}methyl)hexahydro-1H-azepine-1-carboxylate] | 15800 | 2000
26 | c1ccc(C2C[C@@H]2NCC2CCCNCC2)cc1 (stereo in doubt) [Example 22, N-(Hexahydro-1H-azepin-4-ylmethyl)-trans-2-phenylcyclopropanamine] | 100000 | 79.4
27 | CC(N[C@H]1CC1c1ccccc1)C1CCNCC1 (stereo in doubt) [Example 24, [trans-2-Phenylcyclopropyl][1-(4-piperidinyl)ethyl]amine] | 63100 | 10
28 | c1ccc(C2C[C@@H]2NCC2CNCCO2)cc1 (stereo in doubt) [Example 25, N-(2-Morpholinylmethyl)-trans-2-phenylcyclopropanamine] | 12600 | 20
29 | CC(C)(C)OC(=O)N1CCC(CN[C@@H]2C[C@H]2c2ccccc2)CC1 [Example 2, 1,1-Dimethylethyl 4-({[(1R,2S)-2-phenylcyclopropyl]amino}methyl)-1-piperidinecarboxylate] | 631 | 39.8
30 | CN(CC1CCNCC1)[C@H]1CC1c1ccccc1 (some centres unmarked) [Example 19] | 31600 | 
